From the NIST ThermoML archive (doi:10.1021/je300590v)
± gives the expanded uncertainty stated by the source.

Experiment: xn = mol fraction of the nth substance listed
Details: Vibrating tube method

[Ar] [argon] + O=C=O
mass density [kg/m3]
Details | x2 = 0.9276 | x2 = 0.9605
273.15 K, 1000 kPa, Gas | – | 22.5 ± 0.2
273.15 K, 1001 kPa, Gas | 21.2 ± 0.3 | –
273.15 K, 2000 kPa, Gas | – | 46.1 ± 0.3
273.15 K, 2001 kPa, Gas | 44.2 ± 0.4 | –
273.15 K, 3000 kPa, Gas | – | 75.5 ± 0.4
273.15 K, 3001 kPa, Gas | 72.9 ± 0.6 | –
273.15 K, 3600 kPa, Gas | – | 106.3 ± 0.6
273.15 K, 3800 kPa, Gas | 104.5 ± 0.8 | –
273.15 K, 4901 kPa, Liquid | – | 893.5 ± 3.8
273.15 K, 5001 kPa, Liquid | – | 894.8 ± 3.8
273.15 K, 5900 kPa, Liquid | 881.4 ± 6.5 | –
273.15 K, 6000 kPa, Liquid | 880.2 ± 6.5 | –
273.15 K, 6001 kPa, Liquid | – | 905.7 ± 3.8
273.15 K, 7000 kPa, Liquid | – | 915.5 ± 3.8
273.15 K, 7001 kPa, Liquid | 886.5 ± 6.5 | –
273.15 K, 8001 kPa, Liquid | 898 ± 6.6 | 924 ± 3.8
273.15 K, 9001 kPa, Liquid | 907.8 ± 6.6 | –
273.15 K, 9002 kPa, Liquid | – | 932.1 ± 3.9
273.15 K, 10001 kPa, Liquid | 917.3 ± 6.7 | –
273.15 K, 10002 kPa, Liquid | – | 939.5 ± 3.9
273.15 K, 11001 kPa, Liquid | 925.5 ± 6.8 | –
273.15 K, 11002 kPa, Liquid | – | 946.4 ± 3.9
273.15 K, 12000 kPa, Liquid | 933.4 ± 6.8 | 952.9 ± 3.9
273.15 K, 13000 kPa, Liquid | 940.6 ± 6.9 | 959.1 ± 3.9
273.15 K, 14000 kPa, Liquid | – | 965 ± 4
273.15 K, 14002 kPa, Liquid | 947.4 ± 6.9 | –
273.15 K, 15000 kPa, Liquid | 953.8 ± 7 | –
273.15 K, 15001 kPa, Liquid | – | 970.6 ± 4
273.15 K, 16001 kPa, Liquid | 959.9 ± 7 | 975.9 ± 4
273.15 K, 17000 kPa, Liquid | 965.7 ± 7 | –
273.15 K, 17002 kPa, Liquid | – | 981 ± 4.1
273.15 K, 18001 kPa, Liquid | 971.2 ± 7.1 | 986 ± 4
273.15 K, 19001 kPa, Liquid | 976.5 ± 7.1 | –
273.15 K, 19003 kPa, Liquid | – | 990.8 ± 4
273.15 K, 20000 kPa, Liquid | 981.5 ± 7.2 | –
273.15 K, 20001 kPa, Liquid | – | 995.3 ± 4.1
283.15 K, 1001 kPa, Gas | 20.1 ± 0.3 | 20.9 ± 0.2
283.15 K, 2000 kPa, Gas | 42.2 ± 0.4 | 43.1 ± 0.3
283.15 K, 3001 kPa, Gas | 68.4 ± 0.6 | 69.6 ± 0.4
283.15 K, 4000 kPa, Gas | – | 104.2 ± 0.5
283.15 K, 4001 kPa, Gas | 101.2 ± 0.8 | –
283.15 K, 4701 kPa, Gas | – | 144.6 ± 0.8
283.15 K, 5000 kPa, Gas | 151.6 ± 1.2 | –
283.15 K, 5010 kPa, Gas | 153 ± 1.2 | –
283.15 K, 5060 kPa, Gas | 161.6 ± 1.2 | –
283.15 K, 6000 kPa, Liquid | – | 827.6 ± 3.9
283.15 K, 7001 kPa, Liquid | – | 844.5 ± 3.8
283.15 K, 7301 kPa, Liquid | 801.8 ± 6.1 | –
283.15 K, 8001 kPa, Liquid | 816.3 ± 6.1 | 859.1 ± 3.7
283.15 K, 9001 kPa, Liquid | 833.9 ± 6.2 | 871.9 ± 3.8
283.15 K, 10001 kPa, Liquid | 848.6 ± 6.3 | 883.2 ± 3.7
283.15 K, 11001 kPa, Liquid | 861.6 ± 6.4 | 893.1 ± 3.7
283.15 K, 12001 kPa, Liquid | 873 ± 6.4 | 902.4 ± 3.7
283.15 K, 13000 kPa, Liquid | – | 910.9 ± 3.8
283.15 K, 13002 kPa, Liquid | 883.5 ± 6.5 | –
283.15 K, 14000 kPa, Liquid | 892.6 ± 6.5 | –
283.15 K, 14001 kPa, Liquid | – | 918.7 ± 3.8
283.15 K, 15001 kPa, Liquid | 901.4 ± 6.6 | –
283.15 K, 15003 kPa, Liquid | – | 926 ± 3.8
283.15 K, 16001 kPa, Liquid | 909.4 ± 6.7 | 932.8 ± 3.8
283.15 K, 17000 kPa, Liquid | – | 939.4 ± 3.8
283.15 K, 17001 kPa, Liquid | 916.9 ± 6.7 | –
283.15 K, 18000 kPa, Liquid | 924.1 ± 6.8 | 945.6 ± 3.9
283.15 K, 19001 kPa, Liquid | 930.8 ± 6.8 | –
283.15 K, 19002 kPa, Liquid | – | 951.6 ± 3.9
283.15 K, 20001 kPa, Liquid | 937.2 ± 6.8 | –
283.15 K, 20003 kPa, Liquid | – | 957.3 ± 3.9
293.15 K, 1000 kPa, Gas | 19.9 ± 0.3 | –
293.15 K, 1001 kPa, Gas | – | 20.4 ± 0.2
293.15 K, 2000 kPa, Gas | – | 41 ± 0.3
293.15 K, 2001 kPa, Gas | 40.6 ± 0.4 | –
293.15 K, 3000 kPa, Gas | 64.4 ± 0.5 | –
293.15 K, 3001 kPa, Gas | – | 65 ± 0.3
293.15 K, 4000 kPa, Gas | 92.6 ± 0.7 | –
293.15 K, 4001 kPa, Gas | – | 94.2 ± 0.4
293.15 K, 5000 kPa, Gas | 128.2 ± 1 | –
293.15 K, 5001 kPa, Gas | – | 132.6 ± 0.6
293.15 K, 6000 kPa, Gas | – | 198 ± 0.9
293.15 K, 6001 kPa, Gas | 179 ± 2.2 | –
293.15 K, 6601 kPa, Gas | 253.1 ± 2.5 | –
293.15 K, 7151 kPa, Liquid | – | 728.4 ± 3.7
293.15 K, 8002 kPa, Liquid | – | 765.2 ± 3.5
293.15 K, 8201 kPa, Liquid | 680.3 ± 5.2 | –
293.15 K, 9001 kPa, Liquid | 726.1 ± 5.8 | 790.8 ± 3.5
293.15 K, 10001 kPa, Liquid | 760.3 ± 5.8 | 811.1 ± 3.5
293.15 K, 11001 kPa, Liquid | 785 ± 5.9 | 827.5 ± 3.5
293.15 K, 12000 kPa, Liquid | – | 841.6 ± 3.6
293.15 K, 12002 kPa, Liquid | 804.5 ± 6 | –
293.15 K, 13000 kPa, Liquid | – | 853.5 ± 3.6
293.15 K, 13003 kPa, Liquid | 820.2 ± 6.1 | –
293.15 K, 14001 kPa, Liquid | – | 864.3 ± 3.6
293.15 K, 14002 kPa, Liquid | 834.1 ± 6.3 | –
293.15 K, 15000 kPa, Liquid | 846.1 ± 6.2 | –
293.15 K, 15001 kPa, Liquid | – | 874.3 ± 3.6
293.15 K, 16001 kPa, Liquid | 857.1 ± 6.3 | –
293.15 K, 16002 kPa, Liquid | – | 883.4 ± 3.6
293.15 K, 17002 kPa, Liquid | 867.1 ± 6.4 | 891.9 ± 3.6
293.15 K, 18000 kPa, Liquid | 876.3 ± 6.4 | –
293.15 K, 18001 kPa, Liquid | – | 899.7 ± 3.7
293.15 K, 19001 kPa, Liquid | 884.9 ± 6.5 | 906.9 ± 3.7
293.15 K, 20001 kPa, Liquid | 892.9 ± 6.5 | 913.8 ± 3.7
